From US20240199647A1, “ANTI-VIRAL COMPOUNDS” (Aligos Therapeutics, Inc., priority 2022, published 2024)
Read-outs that look alike come from different tables or passages of the source.

Columns and labels:
in vitro = conditions: human
[1] = tested on: human beta-coronavirus OC43; experiment: OC43 Coronavirus Assay in HeLa cells (antiviral, cytopathic effect, cell-titer-glo); type: cell-based; conditions: Betacoronavirus 1, OC43, HeLa, Table B, OC43 coronavirus in HeLa cells, read-out: EC50
[2] = tested on: SARS-CoV-2 B.1.1.7 lineage; experiment: microbe, parasite or virus in culture; type: cell-based; conditions: Severe acute respiratory syndrome coronavirus 2; Table C; SARS-CoV-2 B.1.1.7 in A549-dual_ACE2_TMPRSS2 cells, class symbols; read-out: A549-dual_ACE2_TMPRSS2 (EC50)
SARS-Cov-2 3CLpro = SARS-Cov-2 3CLpro (Severe acute respiratory syndrome coronavirus 2, UniProt P0DTD1); experiment: biochemical; conditions: Table A, class symbols, read-out: SARS-Cov-2 (IC50)
[3] = Cytotoxicity in HeLa cells without addition of OC43 virus (in parallel); conditions: human, HeLa cells, without OC43 virus

| SMILES | CC50 (in vitro) [nM] | EC50 ([1]; class symbols) [nM] | EC50 [2] [nM] | IC50 (SARS-Cov-2 3CLpro) [nM] | CC50 at 6 days [3] [nM] | EC50 ([1]; cells given as a bound) [nM] |
| --- | --- | --- | --- | --- | --- | --- |
| CN(C(=O)[C@H](CC1CC1)NC(=O)C(F)(F)F)[C@@H](CC1CC1)C(=O)N1C[C@@]2(C[C@H]1C#N)Oc1c(F)cc(F)cc1CNC2=O [Compound 199] | > 1000 | < 100 | 100 to 1000 | < 20 | > 10000 |  |
| CN(C(=O)[C@H](CC1CC1)NS(=O)(=O)C1CC1)[C@@H](CC1CC1)C(=O)N1C[C@@]2(C[C@H]1C#N)Oc1cccnc1NC2=O [Compound 178] | > 1000 | < 100 | 100 to 1000 | < 20 | > 10000 |  |
| CN(C(=O)c1cc2c(F)cc(F)c(F)c2[nH]1)[C@@H](CC1CC1)C(=O)N1C[C@@]2(C[C@H]1C#N)Oc1cccnc1NC2=O [Compound 96] | > 1000 | 1000 to 10000 | 100 to 1000 | < 20 | > 10000 |  |
| C[C@H](NC(=O)C(F)(F)F)C(=O)N(C)[C@@H](CC1CC1)C(=O)N1C[C@@]2(C[C@H]1C#N)Oc1ncccc1NC2=O [Compound 209] | > 1000 | < 100 | 100 to 1000 | < 20 | > 10000 |  |
| CN(C(=O)C(C)(C)NC(=O)C(F)(F)F)[C@@H](CC1CC1)C(=O)N1C[C@@]2(C[C@H]1C#N)Oc1cc(F)cc(F)c1NC2=O [Compound 92] | > 1000 | < 100 | < 100 | 200 to 2000 | > 10000 |  |
| COCC[C@H](NC(=O)C(F)(F)F)C(=O)N(C)[C@@H](CC1CC1)C(=O)N1C[C@@]2(C[C@H]1C#N)Oc1cc(F)cc(F)c1NC2=O [Compound 103] | > 1000 | 1000 to 10000 | 100 to 1000 | < 20 | > 10000 |  |
| CC(C)C[C@@H](C(=O)N1C[C@@]2(C[C@H]1C#N)Oc1ccncc1NC2=O)N(C)C(=O)c1cc2c(F)cc(F)cc2[nH]1 [Example 3, N—((S)-1-((2R,5'S)-5′-cyano-3-oxo-3,4-dihydrospiro[pyrido[4,3-b][1,4]oxazine-2,3′-pyrrolidin]-1′-yl)-4-methyl-1-oxopentan-2-yl)-4,6-difluoro-N-methyl-1H-indole-2-carboxamide] | > 1000 |  | 1000 to 10000 | 20 to 200 | > 10000 | > 1000 |
| CN(C(=O)[C@H](CC1CC1)NC(=O)C(F)(F)F)[C@@H](CC1CC1)C(=O)N1C[C@@]2(CC1C#N)Oc1c(C#N)cccc1NC2=O (some centres unmarked) [Compound 124] | > 1000 | < 100 | 100 to 1000 | < 20 | > 10000 |  |
| CN(C(=O)[C@H](CC(F)F)NC(=O)C(F)(F)F)[C@@H](CC1CC1)C(=O)N1C[C@@]2(C[C@H]1C#N)Oc1cc(F)cc(F)c1NC2=O [Compound 86] | > 1000 | 100 to 1000 | < 100 | < 20 | > 10000 |  |
| CC[C@H](NC(=O)C(F)(F)F)C(=O)N(C)[C@@H](CC1CC1)C(=O)N1C[C@@]2(C[C@H]1C#N)Oc1cc(F)cc(F)c1NC2=O [Compound 88] | > 1000 | 100 to 1000 | < 100 | < 20 | > 10000 |  |
| CN(C(=O)[C@H](CC1CC1)NC(=O)C1(F)CC1)[C@@H](CC1CC1)C(=O)N1C[C@@]2(CC1C#N)Oc1ccccc1CNC2=O (some centres unmarked) [Compound 176] | > 1000 | < 100 | < 100 | < 20 | > 10000 |  |
| C[C@@H](NC(=O)C(F)(F)F)C(=O)N(C)[C@@H](CC1CC1)C(=O)N1C[C@@]2(C[C@H]1C#N)Oc1cc(F)cc(F)c1NC2=O [Compound 83] | > 1000 | 100 to 1000 | < 100 | 20 to 200 | > 10000 |  |
| CC(C)C[C@@H](C(=O)N1C[C@]2(C[C@H]1C#N)C(=O)Nc1ccccc1N2C)N(C)C(=O)[C@H](C)NC(=O)C(F)(F)F [Example 42, (S)—N—((S)-1-((3R,5S)-5-cyano-1′-methyl-3′-oxo-3′,4′-dihydro-1′H-spiro[pyrrolidine-3,2′-quinoxalin]-1-yl)-4-methyl-1-oxopentan-2-yl)-N-methyl-2-(2,2,2-trifluoroacetamido) propanamide] | > 1000 |  | 100 to 1000 | 20 to 200 | > 10000 | > 10000 |
| CN(C(=O)[C@H](CC1CC1)NC(=O)C(F)(F)F)[C@@H](CC1CC1)C(=O)N1C[C@@]2(C[C@H]1C#N)Oc1ccc(F)cc1NC2=O [Compound 15, (S)—N—((S)-1-((2R,5'S)-5′-cyano-6-fluoro-3-oxo-3,4-dihydrospiro[benzo[b][1,4]oxazine-2,3′-pyrrolidin]-1′-yl)-3-cyclopropyl-1-oxopropan-2-yl)-3-cyclopropyl-N-methyl-2-(2,2,2-trifluoroacetamido)propanamide] | > 1000 | < 100 | < 100 | < 20 | > 10000 |  |
| CN(C(=O)c1cc2cccnc2[nH]1)[C@@H](CC1CC1)C(=O)N1C[C@@]2(C[C@H]1C#N)Oc1cc(F)cc(F)c1NC2=O [Compound 137] | > 1000 | 1000 to 10000 | 100 to 1000 | 20 to 200 | > 10000 |  |
| CC(C)C[C@@H](C(=O)N1C[C@@]2(C[C@H]1C#N)Oc1cccnc1NC2=O)N(C)C(=O)[C@H](C)NC(=O)C(F)(F)F [Compound 65] | > 1000 | 100 to 1000 | 100 to 1000 | < 20 | > 10000 |  |
| CN(C(=O)[C@H](CC1CC1)NS(=O)(=O)C1(C)CC1)[C@@H](CC1CC1)C(=O)N1C[C@@]2(C[C@H]1C#N)Oc1cccnc1NC2=O [Compound 198] | > 1000 | < 100 | 100 to 1000 | < 20 | > 10000 |  |
| CC(C)C[C@@H](C(=O)N1C[C@]2(C[C@H]1C#N)C(=O)Nc1ccccc1C2(F)F)N(C)C(=O)[C@H](C)NC(=O)C(F)(F)F [Example 43, (S)—N—((S)-1-((3R,5S)-5-cyano-4′,4′-difluoro-2′-oxo-1′,4′-dihydro-2′H-spiro[pyrrolidine-3,3′-quinolin]-1-yl)-4-methyl-1-oxopentan-2-yl)-N-methyl-2-(2,2,2-trifluoroacetamido)propanamide] | > 1000 | 1000 to 10000 | 100 to 1000 | 20 to 200 | > 10000 |  |
| CN(C(=O)[C@H](CC1CCC1)NC(=O)C(F)(F)F)[C@@H](CC1CC1)C(=O)N1C[C@@]2(C[C@H]1C#N)Oc1cc(F)cc(F)c1NC2=O [Compound 87] | > 1000 | 100 to 1000 | < 100 | < 20 | > 10000 |  |
| CC(C)C[C@@H](C(=O)N1C[C@@]2(C[C@H]1C#N)Oc1ccccc1NC2=O)N(C)C(=O)c1cc2c(F)cc(F)cc2[nH]1 [Example 2, N—((S)-1-((2R,5'S)-5′-cyano-3-oxo-3,4-dihydrospiro[benzo[b][1,4]oxazine-2,3′-pyrrolidin]-1′-yl)-4-methyl-1-oxopentan-2-yl)-4,6-difluoro-N-methyl-1H-indole-2-carboxamide] | > 1000 | 100 to 1000 | 100 to 1000 | < 20 | > 10000 |  |
| CC(C)C[C@@H](C(=O)N1C[C@]2(C[C@H]1C#N)OC(=O)Nc1ccccc12)N(C)C(=O)c1cc2c(F)cc(F)cc2[nH]1 [Example 5, N—((S)-1-((4R,5'S)-5′-cyano-2-oxo-1,2-dihydrospiro[benzo[d][1,3]oxazine-4,3′-pyrrolidin]-1′-yl)-4-methyl-1-oxopentan-2-yl)-4,6-difluoro-N-methyl-1H-indole-2-carboxamide] | > 1000 |  | 1000 to 10000 | 200 to 2000 | > 10000 | > 1000 |
| CN(C(=O)[C@H](CC1CC1)NC(=O)C(F)(F)F)[C@@H](CC1CC1)C(=O)N1C[C@@]2(C[C@H]1C#N)Oc1ccc(F)cc1CNC2=O [Compound 167] | > 1000 | < 100 | 100 to 1000 | < 20 | > 10000 |  |
